Data from patent US6150379A, “Compounds and compositions as anticoagulants” (Axys Pharmaceuticals, Inc., priority 1998, dated 2000).

target: human Factor Xa (Homo sapiens, UniProt P00742); assay: In Vitro Enzyme Inhibitor Assay (Factor Xa inhibitory activity); format: biochemical; details: human Factor Xa 0.5-5 nM, pH 8, 150 μM zinc chloride, 1 hour preincubation at room temperature, substrate MesOC-Norleu-Gly-Arg-pNA; read-out: Apparent inhibition constants (Ki)
Protocol: The following represents an assay for determining the Factor Xa inhibitory activity of compounds of Formula I.
Apparent inhibition constants (Ki) were calculated from the enzyme progress curves using standard mathematical models.

Sequence of human Factor Xa (P00742 235-488 limits assumed): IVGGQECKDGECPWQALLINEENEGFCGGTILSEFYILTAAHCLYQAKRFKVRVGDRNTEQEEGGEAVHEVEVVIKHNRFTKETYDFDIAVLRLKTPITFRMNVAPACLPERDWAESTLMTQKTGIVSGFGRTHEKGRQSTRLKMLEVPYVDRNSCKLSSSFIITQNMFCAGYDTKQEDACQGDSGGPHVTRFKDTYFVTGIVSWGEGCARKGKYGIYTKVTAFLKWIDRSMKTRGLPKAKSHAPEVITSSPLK
Sequence of human Factor Xa (P00742 41-179 partner limits assumed): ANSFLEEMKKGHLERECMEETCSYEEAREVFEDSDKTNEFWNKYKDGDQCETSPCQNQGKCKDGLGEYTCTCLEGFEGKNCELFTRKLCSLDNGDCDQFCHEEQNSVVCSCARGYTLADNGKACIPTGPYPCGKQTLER

Row | Ki [nM] | Compound
1 | 5 | CCCCn1ccnc1-c1nc2cc(C(=N)N)ccc2[nH]1 [Compound 27, 2-(1-butyl-1H-imidazol-2-yl)-1H-benzimidazole-5-carboxamidine]
2 | 3 | CCCCc1ccc(-c2nc3cc(C(=N)N)ccc3[nH]2)nc1 [Compound 1]
3 | 6 | N=C(N)c1ccc2[nH]c(-c3nccn3CC(=O)NCCc3ccc(O)cc3)nc2c1 [Compound 95, 2-(5-amidino-1H-benzimidazol-2-yl)imidazol-1-yl-N-[2-(4-hydroxyphenyl)ethyl]acetamide]
4 | 3 | N=C(N)c1ccc2[nH]c(-c3nccn3CC(=O)NCCc3ccc(Cl)cc3)nc2c1 [Compound 90, 2-(5-amidino-1H-benzimidazol-2-yl)imidazol-1-yl-N-[2-(4-chlorophenyl)ethyl]acetamide]
5 | 10 | COc1ccc(CCNC(=O)c2ccnc(-c3nc4cc(C(=N)N)ccc4[nH]3)c2)cc1 [Compound 50, 6-(5-amidino-1H-benzimidazol-2-yl)-N-[2-(4-methoxyphenyl)ethyl]pyridine-4-carboxamide]
6 | 5 | CCOC(=O)Cn1ccnc1-c1nc2cc(C(=N)N)ccc2[nH]1 [Compound 33, ethyl 2-(5-amidino-1H-benzimidazol-2-yl)imidazol-1-ylacetate]
7 | 6 | N=C(N)c1ccc2[nH]c(-c3nccn3CCCC(=O)NCCc3ccc(Cl)cc3)nc2c1 [Compound 100, 4-[2-(5-amidino-1H-benzimidazol-2-yl)imidazol-1-yl]-N-[2-(4-chlorophenyl)ethyl]butyramide]
8 | 4 | N=C(N)c1ccc2[nH]c(-c3nccn3Cc3ccccc3)nc2c1 [Compound 17, 2-(1-benzyl-1H-imidazol-2-yl)-1H-benzimidazole-5-carboxamidine]
9 | 2 | COc1ccc(CCNC(=O)c2ccc(-c3nc4cc(C(=N)N)ccc4[nH]3)nc2)cc1Br [Compound 57]
10 | 5 | Cc1c(-c2nc3cc(C(=N)N)ccc3[nH]2)ncn1CCCN1C(=O)c2ccccc2C1=O [Compound 36, 2-{1-[3-(1,3-dioxo-1,3-dihydroisoindol-2-yl)propyl]-5-methyl-1H-imidazol-4-yl}-1H-benzimidazole-5-carboxamidine]
11 | 6 | N=C(N)c1ccc2[nH]c(-c3nccn3CCCCN3C(=O)c4ccccc4C3=O)nc2c1 [Compound 39, 2-{1-[4-(1,3-dioxo-1,3-dihydroisoindol-2-yl)butyl]-1H-imidazol-2-yl}-1H-benzimidazole-5-carboxamidine]
12 | 8 | Cc1c(-c2nc3cc(C(=N)N)ccc3[nH]2)ncn1Cc1ccccc1 [Compound 16, 2-(5-methyl-1-benzyl-1H-imidazol-4-yl)-1H-benzimidazole-5-carboxamidine]
13 | 30 | N=C(N)c1ccc2[nH]c(-c3nccn3CC(=O)NCCc3cccc4ccccc34)nc2c1 [Compound 96, 2-(5-amidino-1H-benzimidazol-2-yl)imidazol-1-yl-N-(2-naphth-1-ylethyl)acetamide]
14 | 2 | N=C(N)c1ccc2[nH]c(-c3nccn3CCCC(=O)N3CCOCC3)nc2c1 [Compound 98, 2-[1-(3-morpholin-4-ylcarbonylpropyl)-1H-imidazol-2-yl]-1H-benzimidazole-5-carboxamidine]
15 | 7 | CCCn1cnc(-c2nc3cc(C(=N)N)ccc3[nH]2)c1C [Compound 20, 2-(5-methyl-1-propyl-1H-imidazol-4-yl)-1H-benzimidazole-5-carboxamidine]

Row | Compound | Ki [nM]
16 | 6-(5-amidino-1H-benzimidazol-2-yl)-N-(2-morpholin-4-ylethyl)pyridine-5-carboxamide [Compound 69] | 40
17 | 6-(5-amidino-1H-benzimidazol-2-yl)-N-[2-(3,4-dichlorophenyl)ethyl]pyridine- 5-carboxamide [Compound 88] | 6
18 | 6-(5-amidino-1H-benzimidazol-2-yl)-N-[2-(4-methylphenyl)ethyl]pyridine-5-carboxamide [Compound 86] | 8
